Source: US11117892B2, “Pyrrolo-pyridine derivative compound, method for preparing same, and pharmaceutical composition containing same as active ingredient for prevention or treatment of protein kinase-related diseases” (DAEGU-GYEONGBUK MEDICAL INNOVATION FOUNDATION, priority 2017, dated 2021)

How the values were obtained:
Assay in all cases: scanMAX Kinase assay panel
Type in all cases: binding
Conditions in all cases: read-out: % control
[1] = molecular target: EPHB1 (Homo sapiens (Human), UniProt P54762)
Method in brief: (§1)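 Measurements came from scanMAX kinase selectivity profiling. Each value was normalised by subtracting the positive control and dividing by the span between the DMSO vehicle and the positive control, then multiplied by 100.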

[2] = molecular target: HASPIN (Homo sapiens (Human), UniProt Q8TF76)
Method in brief: as §1

[3] = molecular target: ALK (Homo sapiens (Human), UniProt Q9UM73)
Method in brief: as §1

[4] = molecular target: BMPR1B (Homo sapiens (Human), UniProt O00238)
Method in brief: as §1

[5] = molecular target: ABL1(H396P)-phosphorylated (Homo sapiens (Human), UniProt P00519, H396P)
Method in brief: as §1

[6] = molecular target: TAK1 (Homo sapiens (Human), UniProt O43318)
Method in brief: as §1

[7] = molecular target: ANKK1 (Homo sapiens (Human), UniProt Q8NFD2)
Method in brief: as §1

[8] = molecular target: TRKC (Homo sapiens (Human), UniProt Q16288)
Method in brief: as §1

[9] = molecular target: JAK2(JH1domain-catalytic) (Homo sapiens (Human), UniProt O60674)
Method in brief: as §1

[10] = molecular target: TEC (Homo sapiens (Human), UniProt P42680)
Method in brief: as §1

[11] = molecular target: RAF1 (Homo sapiens (Human), UniProt P04049)
Method in brief: as §1

[12] = molecular target: DCAMKL2 (Homo sapiens (Human), UniProt Q8N568)
Chain of DCAMKL2 (Q8N568 whole entry, looked up): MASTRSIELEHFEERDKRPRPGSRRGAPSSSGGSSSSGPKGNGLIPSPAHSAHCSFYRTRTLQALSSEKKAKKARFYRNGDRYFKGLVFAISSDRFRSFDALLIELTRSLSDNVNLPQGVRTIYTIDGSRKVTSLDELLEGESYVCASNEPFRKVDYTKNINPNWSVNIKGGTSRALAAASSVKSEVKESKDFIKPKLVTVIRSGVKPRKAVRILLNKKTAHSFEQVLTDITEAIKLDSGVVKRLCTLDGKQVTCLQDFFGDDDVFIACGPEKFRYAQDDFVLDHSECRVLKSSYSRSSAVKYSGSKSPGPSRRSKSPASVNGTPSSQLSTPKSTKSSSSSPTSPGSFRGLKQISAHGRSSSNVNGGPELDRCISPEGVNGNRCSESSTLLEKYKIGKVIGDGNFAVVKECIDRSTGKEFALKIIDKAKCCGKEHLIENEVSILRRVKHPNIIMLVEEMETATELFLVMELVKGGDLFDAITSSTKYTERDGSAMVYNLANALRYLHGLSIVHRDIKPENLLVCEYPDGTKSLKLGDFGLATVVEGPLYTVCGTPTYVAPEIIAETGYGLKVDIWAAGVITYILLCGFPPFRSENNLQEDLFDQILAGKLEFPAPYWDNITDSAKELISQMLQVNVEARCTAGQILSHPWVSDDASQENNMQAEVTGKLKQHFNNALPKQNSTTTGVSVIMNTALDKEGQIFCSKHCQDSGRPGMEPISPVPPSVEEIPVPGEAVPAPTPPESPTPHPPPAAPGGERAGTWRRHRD
Method in brief: as §1

[13] = molecular target: ARK5 (Homo sapiens (Human), UniProt O60285)
Method in brief: as §1

[14] = molecular target: ASK2 (Homo sapiens (Human), UniProt O95382)
Chain of ASK2 (O95382 whole entry): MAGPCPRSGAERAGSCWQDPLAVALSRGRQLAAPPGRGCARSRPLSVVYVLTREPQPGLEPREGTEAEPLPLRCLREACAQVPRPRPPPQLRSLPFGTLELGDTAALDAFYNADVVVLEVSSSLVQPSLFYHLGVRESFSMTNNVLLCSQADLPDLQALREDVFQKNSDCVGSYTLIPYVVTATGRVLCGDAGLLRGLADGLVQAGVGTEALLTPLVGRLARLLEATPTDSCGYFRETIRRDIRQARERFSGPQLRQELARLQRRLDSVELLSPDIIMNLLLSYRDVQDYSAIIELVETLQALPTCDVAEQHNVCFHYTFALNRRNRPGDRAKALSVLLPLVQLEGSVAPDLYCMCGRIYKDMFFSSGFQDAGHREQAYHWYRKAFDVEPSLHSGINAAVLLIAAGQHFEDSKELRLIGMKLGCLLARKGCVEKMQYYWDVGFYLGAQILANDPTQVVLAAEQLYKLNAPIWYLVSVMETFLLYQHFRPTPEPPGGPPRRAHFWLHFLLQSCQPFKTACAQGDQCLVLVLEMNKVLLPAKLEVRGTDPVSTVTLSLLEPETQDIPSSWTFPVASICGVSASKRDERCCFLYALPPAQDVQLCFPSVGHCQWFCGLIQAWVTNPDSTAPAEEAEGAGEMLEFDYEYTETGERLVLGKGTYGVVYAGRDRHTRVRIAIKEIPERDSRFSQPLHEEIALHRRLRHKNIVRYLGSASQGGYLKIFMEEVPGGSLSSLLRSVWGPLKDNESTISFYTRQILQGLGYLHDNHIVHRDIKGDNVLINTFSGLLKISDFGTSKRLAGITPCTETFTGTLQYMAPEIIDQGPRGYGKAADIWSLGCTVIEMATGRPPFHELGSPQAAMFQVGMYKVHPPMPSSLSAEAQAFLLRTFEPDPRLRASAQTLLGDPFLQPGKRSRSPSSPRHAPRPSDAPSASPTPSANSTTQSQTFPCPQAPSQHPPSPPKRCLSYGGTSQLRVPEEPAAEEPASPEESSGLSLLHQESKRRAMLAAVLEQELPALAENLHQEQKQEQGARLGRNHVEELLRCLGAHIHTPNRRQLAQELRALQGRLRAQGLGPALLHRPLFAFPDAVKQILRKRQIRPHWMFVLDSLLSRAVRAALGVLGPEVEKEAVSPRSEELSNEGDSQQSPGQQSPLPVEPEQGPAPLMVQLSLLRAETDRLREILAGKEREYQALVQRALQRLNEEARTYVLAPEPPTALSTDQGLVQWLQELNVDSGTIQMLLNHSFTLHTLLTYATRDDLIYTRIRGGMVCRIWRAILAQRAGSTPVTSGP
Method in brief: as §1

[15] = molecular target: HIPK1 (Homo sapiens (Human), UniProt Q86Z02)
Method in brief: as §1

[16] = molecular target: HIPK4 (Homo sapiens (Human), UniProt Q8NE63)
Method in brief: as §1

[17] = molecular target: TSSK1B (Homo sapiens (Human), UniProt Q9BXA7)
Chain of TSSK1B (Q9BXA7 whole entry): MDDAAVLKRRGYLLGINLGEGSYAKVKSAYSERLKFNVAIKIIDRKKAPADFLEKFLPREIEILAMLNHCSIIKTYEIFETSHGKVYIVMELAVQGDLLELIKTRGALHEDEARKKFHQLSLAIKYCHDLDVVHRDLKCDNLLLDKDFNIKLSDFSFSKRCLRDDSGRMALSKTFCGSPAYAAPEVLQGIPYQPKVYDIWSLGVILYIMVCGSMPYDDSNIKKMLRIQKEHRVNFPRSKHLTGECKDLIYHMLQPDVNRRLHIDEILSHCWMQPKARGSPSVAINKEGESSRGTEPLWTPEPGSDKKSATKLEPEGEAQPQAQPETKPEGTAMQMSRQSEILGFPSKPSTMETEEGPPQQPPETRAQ
Method in brief: as §1

[18] = molecular target: GRK3 (Homo sapiens (Human), UniProt P35626)
Method in brief: as §1

[19] = molecular target: TTK (Homo sapiens (Human), UniProt P33981)
Method in brief: as §1

[20] = molecular target: PIK3CA(E545K) (Homo sapiens (Human), UniProt P42336, E545K)
Method in brief: as §1

[21] = molecular target: BRK (Homo sapiens (Human), UniProt Q13882)
Method in brief: as §1

[22] = molecular target: FGFR3(G697C) (Homo sapiens (Human), UniProt P22607, G697C)
Method in brief: as §1

[23] = molecular target: KIT(V559D, V654A) (Homo sapiens (Human), UniProt P10721, V559D/V654A)
Chain of KIT(V559D, V654A) (P10721 26-976 V559D/V654A): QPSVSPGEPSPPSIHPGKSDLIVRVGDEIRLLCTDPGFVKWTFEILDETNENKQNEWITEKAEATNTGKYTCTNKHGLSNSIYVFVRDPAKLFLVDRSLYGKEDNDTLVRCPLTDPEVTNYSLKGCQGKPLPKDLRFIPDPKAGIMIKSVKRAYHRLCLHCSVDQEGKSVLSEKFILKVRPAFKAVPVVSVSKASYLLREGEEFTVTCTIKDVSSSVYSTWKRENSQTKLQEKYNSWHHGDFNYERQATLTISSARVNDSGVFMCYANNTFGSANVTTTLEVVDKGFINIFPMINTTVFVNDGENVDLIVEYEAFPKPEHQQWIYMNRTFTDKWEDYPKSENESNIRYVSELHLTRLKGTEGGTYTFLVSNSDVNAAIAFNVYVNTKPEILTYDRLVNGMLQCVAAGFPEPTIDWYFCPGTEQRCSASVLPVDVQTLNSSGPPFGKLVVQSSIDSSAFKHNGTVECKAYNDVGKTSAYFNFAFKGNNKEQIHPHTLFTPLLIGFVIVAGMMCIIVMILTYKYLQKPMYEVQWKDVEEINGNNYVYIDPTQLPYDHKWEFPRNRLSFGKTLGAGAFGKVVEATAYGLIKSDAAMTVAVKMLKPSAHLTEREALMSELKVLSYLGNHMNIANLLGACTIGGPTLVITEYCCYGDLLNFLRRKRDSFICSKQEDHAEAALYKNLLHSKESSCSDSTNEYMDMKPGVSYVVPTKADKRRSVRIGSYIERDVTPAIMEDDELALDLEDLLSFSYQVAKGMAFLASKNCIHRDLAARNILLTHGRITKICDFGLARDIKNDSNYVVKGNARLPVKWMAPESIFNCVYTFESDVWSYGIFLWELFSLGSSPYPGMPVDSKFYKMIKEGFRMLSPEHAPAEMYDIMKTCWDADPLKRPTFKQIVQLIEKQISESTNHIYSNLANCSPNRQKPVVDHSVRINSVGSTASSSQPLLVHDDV
Method in brief: as §1

[24] = molecular target: ACVR2B (Homo sapiens (Human), UniProt Q13705)
Method in brief: as §1

[25] = molecular target: RET(V804L) (Homo sapiens (Human), UniProt P07949, V804L)
Method in brief: as §1

[26] = molecular target: TBK1 (Homo sapiens (Human), UniProt Q9UHD2)
Method in brief: as §1

[27] = molecular target: MARK1 (Homo sapiens (Human), UniProt Q9P0L2)
Method in brief: as §1

[28] = molecular target: FLT3-autoinhibited (Homo sapiens (Human), UniProt P36888)
Chain of FLT3-autoinhibited (P36888 564-993 limits assumed): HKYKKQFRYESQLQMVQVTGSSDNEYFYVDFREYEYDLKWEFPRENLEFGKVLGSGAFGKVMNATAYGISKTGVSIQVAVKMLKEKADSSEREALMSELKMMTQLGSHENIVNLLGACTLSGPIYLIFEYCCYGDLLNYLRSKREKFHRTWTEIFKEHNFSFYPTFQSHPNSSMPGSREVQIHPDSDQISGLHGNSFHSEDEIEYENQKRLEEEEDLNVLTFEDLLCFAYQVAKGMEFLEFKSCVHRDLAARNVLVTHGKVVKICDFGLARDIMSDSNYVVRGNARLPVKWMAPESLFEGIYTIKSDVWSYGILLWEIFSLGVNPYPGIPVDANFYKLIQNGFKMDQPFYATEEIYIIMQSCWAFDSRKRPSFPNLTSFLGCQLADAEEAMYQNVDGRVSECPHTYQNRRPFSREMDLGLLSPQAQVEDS
Method in brief: as §1

[29] = molecular target: EGFR(L861Q) (Homo sapiens (Human), UniProt P00533, L861Q)
Method in brief: as §1

[30] = molecular target: IGF1R (Homo sapiens (Human), UniProt P08069)
Method in brief: as §1

[31] = molecular target: EGFR(L858R, T790M) (Homo sapiens (Human), UniProt P00533, L858R/T790M)
Method in brief: as §1

[32] = molecular target: RPS6KA4(Kin.Dom.2-C-terminal) (Homo sapiens (Human), UniProt O75676)
Method in brief: as §1

[33] = molecular target: LATS2 (Homo sapiens (Human), UniProt Q9NRM7)
Method in brief: as §1

[34] = molecular target: TAOK1 (Homo sapiens (Human), UniProt Q7L7X3)
Chain of TAOK1 (Q7L7X3 whole entry): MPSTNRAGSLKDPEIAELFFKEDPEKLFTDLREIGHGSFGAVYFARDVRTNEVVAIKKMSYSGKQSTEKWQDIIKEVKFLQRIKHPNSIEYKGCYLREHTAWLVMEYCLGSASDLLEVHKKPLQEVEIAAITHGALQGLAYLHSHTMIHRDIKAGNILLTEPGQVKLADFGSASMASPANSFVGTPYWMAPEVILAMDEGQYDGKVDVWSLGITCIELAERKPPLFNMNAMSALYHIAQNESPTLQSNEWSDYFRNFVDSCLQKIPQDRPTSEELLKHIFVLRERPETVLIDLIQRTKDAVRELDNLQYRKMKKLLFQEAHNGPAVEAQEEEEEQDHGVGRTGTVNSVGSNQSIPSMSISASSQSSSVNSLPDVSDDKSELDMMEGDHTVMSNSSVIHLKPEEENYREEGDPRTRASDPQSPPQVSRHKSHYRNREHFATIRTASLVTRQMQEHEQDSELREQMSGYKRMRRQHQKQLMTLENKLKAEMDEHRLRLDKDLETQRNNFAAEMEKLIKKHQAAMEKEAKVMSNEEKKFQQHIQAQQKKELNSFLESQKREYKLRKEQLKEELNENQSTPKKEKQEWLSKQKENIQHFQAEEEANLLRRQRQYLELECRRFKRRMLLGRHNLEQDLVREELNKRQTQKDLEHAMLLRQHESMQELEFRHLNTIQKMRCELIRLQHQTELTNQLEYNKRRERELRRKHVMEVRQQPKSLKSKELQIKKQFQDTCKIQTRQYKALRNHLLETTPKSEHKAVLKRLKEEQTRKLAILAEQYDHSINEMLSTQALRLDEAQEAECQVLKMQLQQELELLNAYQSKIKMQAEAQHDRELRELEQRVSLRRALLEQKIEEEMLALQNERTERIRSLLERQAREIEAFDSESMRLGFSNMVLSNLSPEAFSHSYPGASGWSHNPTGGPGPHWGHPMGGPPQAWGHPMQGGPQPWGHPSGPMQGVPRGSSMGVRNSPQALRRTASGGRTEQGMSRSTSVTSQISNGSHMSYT
Method in brief: as §1

[35] = molecular target: NEK10 (Homo sapiens (Human), UniProt Q6ZWH5)
Method in brief: as §1

[36] = molecular target: KIT (Homo sapiens (Human), UniProt P10721)
Chain of KIT (P10721 26-976): as the sequence (P10721 26-976 V559D/V654A) above, with D534V, A629V counted along it
Method in brief: as §1

[37] = molecular target: ERK2 (Homo sapiens (Human), UniProt P28482)
Method in brief: as §1

[38] = molecular target: CDKL5 (Homo sapiens (Human), UniProt O76039)
Method in brief: as §1

Row | Structure (SMILES) | remaining binding at 1 µM [1] [%] | remaining binding at 1 µM [2] [%] | remaining binding at 1 µM [3] [%] | remaining binding at 1 µM [4] [%] | remaining binding at 1 µM [5] [%] | remaining binding at 1 µM [6] [%] | remaining binding at 1 µM [7] [%] | remaining binding at 1 µM [8] [%] | remaining binding at 1 µM [9] [%] | remaining binding at 1 µM [10] [%] | remaining binding at 1 µM [11] [%] | remaining binding at 1 µM [12] [%] | remaining binding at 1 µM [13] [%] | remaining binding at 1 µM [14] [%] | remaining binding at 1 µM [15] [%] | remaining binding at 1 µM [16] [%] | remaining binding at 1 µM [17] [%] | remaining binding at 1 µM [18] [%] | remaining binding at 1 µM [19] [%] | remaining binding at 1 µM [20] [%] | further results
1 | CCNc1cc(Nc2ccc(C(=O)N3CCC(N4CCOCC4)CC3)cc2OC)nc2[nH]cc(C#N)c12 [Example 18, 4-(ethylamino)-6-((2-methoxy-4-(4-morpholinopiperidine-1-carbonyl)phenyl)amino)-1H-pyrrolo[2,3-b]pyridine-3-carbonitrile] | 95 | 7.6 | 2.7 | 85 | 85 | 59 | 78 | 93 | 70 | 100 | 97 | 77 | 94 | 82 | 63 | 100 | 34 | 58 | 8.9 | 92 | remaining binding at 1 µM [21]: 95%; remaining binding at 1 µM [22]: 88%; remaining binding at 1 µM [23]: 97%; remaining binding at 1 µM [24]: 100%; remaining binding at 1 µM [25]: 97%; remaining binding at 1 µM [26]: 76%; remaining binding at 1 µM [27]: 84%; remaining binding at 1 µM [28]: 82%; remaining binding at 1 µM [29]: 85%; remaining binding at 1 µM [30]: 74%; remaining binding at 1 µM [31]: 81%; remaining binding at 1 µM [32]: 0.3%; remaining binding at 1 µM [33]: 26%; remaining binding at 1 µM [34]: 82%; remaining binding at 1 µM [35]: 73%; remaining binding at 1 µM [36]: 49%; remaining binding at 1 µM [37]: 94%; remaining binding at 1 µM [38]: 100%
2 | CCNc1cc(Nc2ccc(C(=O)N3CCC(N4CCOCC4)CC3)cc2OC)nc2[nH]cc(C(F)(F)F)c12 [Example 57, (4-((4-(ethylamino)-3-(trifluoromethyl)-1H-pyrrolo[2,3-b]pyridin-6-yl)amino)-3-methoxyphenyl) (4-morpholinopiperidin-1-yl)methanone] | 94 | 70 | 2.5 | 100 | 100 | 79 | 100 | 100 | 100 | 92 | 72 | 79 | 94 | 92 | 54 | 86 | 53 | 100 | 67 | 73 | remaining binding at 1 µM [21]: 94%; remaining binding at 1 µM [22]: 78%; remaining binding at 1 µM [23]: 84%; remaining binding at 1 µM [24]: 98%; remaining binding at 1 µM [25]: 91%; remaining binding at 1 µM [26]: 85%; remaining binding at 1 µM [27]: 82%; remaining binding at 1 µM [28]: 92%; remaining binding at 1 µM [29]: 94%; remaining binding at 1 µM [30]: 71%; remaining binding at 1 µM [31]: 73%; remaining binding at 1 µM [32]: 100%; remaining binding at 1 µM [33]: 100%; remaining binding at 1 µM [34]: 100%; remaining binding at 1 µM [35]: 100%; remaining binding at 1 µM [36]: 91%; remaining binding at 1 µM [37]: 74%; remaining binding at 1 µM [38]: 91%
